For 79 molecules, pest or weed control results are on record in patent US20100305124A1, “Acylated Aminopyridine and Aminopyridazine Insecticides” (BAYER CROPSCIENCE AG, priority 2009, published 2010).

One experiment concerns green peach aphid (Myzus persicae). The experiment is described as follows: Myzus test (MYZUPE), sprayed aubergine plants. Particulars: application rate of 100 ppm, spray on aubergine plants, read-out: effect in % (aphids killed). Format: in vivo. As for the experimental part: Solvent: 3 parts by weight of dimethylformamide Emulsifier: 1 part by weight of polyoxyethylenealkyl phenyl ether
An appropriate preparation of active ingredient is prepared by mixing 1 part by weight of active ingredient with the stated amount of solvent and emulsifier and diluting the concentrate with water to the desired concentration.
Aubergine plants (Solanum melongena) infested by all stages of the green peach aphid (Myzus persicae) are sprayed with a preparation of active ingredient at the desired concentration.
After the desired time, the effect in % is determined; here, 100% means that all of the aphids have been killed. Conversely, 0% means that no aphids have been killed.
`CN(C(=O)c1ccc(Oc2ccc(OC(F)(F)F)cc2)nc1)c1cccnc1` [I-95]: the pest or weed control at 100 ppm was not below 80%.
As for `Cc1cncc(C(=O)Nc2cccnc2)c1` [I-10], the pest or weed control at 100 ppm is not below 80%.
As to `Cc1c(C(=O)Nc2cccnc2)cnn1-c1ncccc1Cl` [I-1], the pest or weed control at 100 ppm was not below 80%.

The experiment is the same for the next values; noted with them: application rate of 500 ppm, spray on aubergine plants, read-out: effect in % (aphids killed).
Take `CN(C(=O)c1ccc(C(=O)NCc2ccccc2)cc1)c1cccnc1` [I-255]: the pest or weed control at 500 ppm was not below 80%.
Same read-out and setting: the same measure for `CSCc1cccc(C(=O)N(C)c2cccnc2)c1` [I-57]: not below 80%; for `COc1nc(OC)nc(Sc2ccc(C(=O)N(C)c3cccnc3)cn2)n1` [I-200]: not below 80%.
Take `O=C(Nc1cccnc1)c1ccc(CSC(F)F)cc1` [I-35]: the pest or weed control at 500 ppm is not below 80%.
Regarding `CCN(C(=O)c1ccc(SC)cc1)c1cccnc1` [I-63], the pest or weed control at 500 ppm is not below 80%.
The same measure, in the same setting: the same measure for `Cc1ccnc(Sc2ccc(C(=O)Nc3cccnc3)cn2)n1` [I-195]: not below 80%.
Same read-out and setting: the same measure for `CCN(C(=O)c1ccc(N(C)C(=O)C(F)(F)Cl)cc1)c1cccnc1` [I-246]: not below 80%; for `CCN(C(=O)c1ccc(Oc2nc(C)cc(C)n2)nc1)c1cccnc1` [I-187]: not below 80%; for `O=C(Nc1cccnc1)c1ccc(Sc2ncccn2)nc1` [I-194]: not below 80%.
The same measure, in the same setting: with `CC(C)SCc1ccc(C(=O)N(C)c2cccnc2)cc1` [I-61] the figure was not below 80%; with `CN(C(=O)c1cccc(Cn2nc(C(F)(F)F)cc2C(F)(F)F)c1)c1cccnc1` [I-13], not below 80%.
Take `Cc1ccc(Sc2ccc(C(=O)N(C)c3cccnc3)cn2)cc1` [I-105]: the pest or weed control at 500 ppm was not below 80%.
In the case of `COc1cc(OC)nc(Oc2ccc(C(=O)Nc3cccnc3)cn2)n1` [I-168], the pest or weed control at 500 ppm was not below 80%.
Same read-out and setting: the same measure for `Cc1cc(C)nc(Sc2ccc(C(=O)Nc3cccnc3)cc2)n1` [I-179]: not below 80%; for `CN(C(=O)c1ccc(Oc2ccc(S(C)(=O)=O)cc2)nc1)c1cccnc1` [I-101]: not below 80%.
Same read-out and setting: with `CSc1ccc(C(=O)N(C)c2cccnc2)cc1F` [I-66] the figure was not below 80%; with `Cc1ccc(C(=O)N(C)c2cccnc2)cn1` [I-43], not below 80%.
Regarding `CN(C(=O)c1ccc(Sc2ccc(C(F)(F)F)cc2)nc1)c1cccnc1` [I-118], the pest or weed control at 500 ppm is not below 80%.
Still for that read-out and setting: the same measure for `CN(C(=O)c1ccc(Cn2nc(C(F)(F)F)nc2C(F)(F)F)cc1)c1cccnc1` [I-26]: not below 80%; for `CN(C(=O)c1ccc(Oc2cnc(C(F)(F)F)nc2)nc1)c1cccnc1` [I-185]: not below 80%; for `CCN(C)C(=O)c1cccc(C(=O)Nc2cccnc2)c1` [I-71]: not below 80%.
On to `CC(C)SCc1ccc(C(=O)Nc2cccnc2)cc1` [I-34], for which the pest or weed control at 500 ppm was not below 80%.
Still for that read-out and setting: with `CSCc1ccc(C(=O)N(C)c2cccnc2)cc1` [I-59] the figure was not below 80%; with `Cc1cc(C)nc(Sc2ccc(C(=O)N(Cc3ccc(OC(F)(F)F)cc3)c3cccnc3)cn2)n1` [I-230], not below 80%; with `O=C(Nc1cccnc1)c1ccc(Oc2cccc(C(F)(F)F)c2)nc1` [I-88], not below 80%.
Consider `CCN(CC)C(=O)c1ccc(C(=O)Nc2cccnc2)cc1` [I-250], for which the pest or weed control at 500 ppm is not below 80%.
Same read-out and setting: with `Cc1ccnc(Sc2ncc(C(=O)N(C)c3cccnc3)cc2Cl)n1` [I-166] the figure was not below 80%.
`CCN(C(=O)c1ccc(Sc2nc(C)c(C)c(C)n2)nc1)c1cccnc1` [I-220]: the pest or weed control at 500 ppm is not below 80%.
On to `C=CCN(C(=O)c1ccc(Cl)nc1)c1cccnc1` [I-231], for which the pest or weed control at 500 ppm is not below 80%.
On the same count and under the same terms, with `CCCSCc1ccc(C(=O)N(C)c2cccnc2)cc1` [I-60] the figure was not below 80%; with `CCCN(C(=O)c1ccc(Oc2ccc(OC(F)(F)F)cc2)nc1)c1cccnc1` [I-133], not below 80%.
Same read-out and setting: with `CCN(C)C(=O)c1cc(C(=O)N(C)c2cccnc2)ccc1OC` [I-77] the figure was not below 80%.
Take `CCN(C(=O)c1ccc(/C=N/OC(C)C)cc1)c1cccnc1` [I-236]: the pest or weed control at 500 ppm was not below 80%.
Same read-out and setting: with `CN(C(=O)c1ccc(Sc2ncccn2)nc1)c1cccnc1` [I-136] the figure was not below 80%; with `COc1ccc(Oc2ccc(Oc3ccc(C(=O)N(C)c4cccnc4)cn3)cc2)cc1` [I-131], not below 80%.
The same measure, in the same setting: with `CCSc1ccc(C(=O)N(C)c2cccnc2)cc1` [I-56] the figure was not below 80%; with `Cc1cc(C)nc(Sc2ccc(C(=O)N(Cc3ccccc3)c3cccnc3)cn2)n1` [I-227], not below 80%.
The same measure, in the same setting: with `CCN(C(=O)c1ccc(Oc2nc(OC)cc(OC)n2)nc1)c1cccnc1` [I-169] the figure was not below 80%; with `CC#CCN(C(=O)c1ccc(Sc2nc(C)cc(C)n2)nc1)c1cccnc1` [I-226], not below 80%; with `CN(C(=O)c1ccc(Oc2ccc(C#N)cc2)nc1)c1cccnc1` [I-90], not below 80%.
Take `C=CCN(C(=O)c1ccc(Sc2nc(C)cc(C)n2)nc1)c1cccnc1` [I-224]: the pest or weed control at 500 ppm is not below 80%.
In the case of `CCN(C(=O)c1ccc(Sc2nc(C)cc(C)n2)cc1)c1cccnc1` [I-180], the pest or weed control at 500 ppm was not below 80%.
Same read-out and setting: with `COc1cc(OC)nc(Oc2ccc(C(=O)N(C)c3cccnc3)cn2)n1` [I-145] the figure was not below 80%; with `O=C(Nc1cccnc1)c1ccc(NCC2CC2)nc1` [I-210], not below 80%; with `CSCc1cccc(C(=O)Nc2cccnc2)c1` [I-16], not below 80%.
The same measure, in the same setting: the same measure for `CCN(C(=O)c1ccc(Oc2ccc(C#N)cc2)nc1)c1cccnc1` [I-165]: not below 80%; for `COc1cc(OC)nc(Sc2ccc(C(=O)N(C)c3cccnc3)cn2)n1` [I-174]: not below 80%.
Still for that read-out and setting: the same measure for `CCN(C)C(=O)c1cccc(C(=O)N(C)c2cccnc2)c1` [I-74]: not below 80%; for `COc1ccc(Oc2ccc(C(=O)N(C)c3cccnc3)cn2)cc1` [I-92]: not below 80%; for `CN(C(=O)c1ccc(CSC(F)F)cc1)c1cccnc1` [I-62]: not below 80%.
On to `C=CCN(C(=O)c1ccc(Oc2ccc(OC(F)(F)F)cc2)nc1)c1cccnc1` [I-134], for which the pest or weed control at 500 ppm is not below 80%.
The same measure, in the same setting: the same measure for `COc1nc(OC)nc(Sc2ccc(C(=O)Nc3cccnc3)cc2)n1` [I-188]: not below 80%; for `CCCCSCc1ccc(C(=O)Nc2cccnc2)cc1` [I-40]: not below 80%; for `Cc1ccc(Oc2ccc(C(=O)N(C)c3cccnc3)cn2)cc1` [I-102]: not below 80%.
Same read-out and setting: with `CN(C(=O)c1ccc(Oc2ccc(OC(F)(F)F)cc2)nc1)c1cccnc1` [I-116] the figure was not below 80%; with `CN(C(=O)c1cccc(COc2ccc(C(F)(F)F)cc2)c1)c1cccnc1` [I-14], not below 80%; with `CCN(C(=O)c1ccc(Oc2ccc(OC(F)(F)F)cc2)nc1)c1cccnc1` [I-132], not below 80%.
In the case of `CC(=O)N(Cc1ccc(C(=O)N(C)c2cccnc2)cc1)CC(C)C` [I-238], the pest or weed control at 500 ppm was not below 80%.
Same read-out and setting: the same measure for `CCN(C(=O)c1ccc(Sc2nc(OC)cc(OC)n2)cc1)c1cccnc1` [I-178]: not below 80%.
On the same count and under the same terms, the same measure for `COc1nc(OC)nc(Sc2ccc(C(=O)N(C)c3cccnc3)cc2)n1` [I-189]: not below 80%; for `CCN(C(=O)c1ccc(Oc2ccc(C)cn2)nc1)c1cccnc1` [I-193]: not below 80%; for `CN(C(=O)c1ccc(Oc2ccc([N+](=O)[O-])cc2)nc1)c1cccnc1` [I-93]: not below 80%.
On the same count and under the same terms, the same measure for `Cc1ccc(Oc2ccc(C(=O)N(C)c3cccnc3)cn2)cn1` [I-80]: not below 80%; for `CC(C)S(=O)(=O)c1ccc(Oc2ccc(C(=O)N(C)c3cccnc3)cn2)cc1` [I-130]: not below 80%; for `Cc1cc(C)nc(Sc2ccc(C(=O)N(C)c3ccnnc3)cn2)n1` [I-222]: not below 80%.
For the molecule `COc1cc(OC)nc(Oc2ccc(C(=O)Nc3cccnc3)cc2)n1` [I-170], the pest or weed control at 500 ppm was not below 80%.
The same measure, in the same setting: the same measure for `CN(C(=O)c1ccc(NC(=O)CC(F)(F)F)cc1)c1cccnc1` [I-51]: not below 80%.
For `CC(=O)N(C)c1ccc(C(=O)Nc2cccnc2)cc1` [I-252], the pest or weed control at 500 ppm is not below 80%.
With `CN(C(=O)c1ccc(Oc2cc(C(F)(F)F)cc(C(F)(F)F)c2)nc1)c1cccnc1` [I-124], the pest or weed control at 500 ppm was not below 80%.
As to `Cc1ccnc(Sc2ccc(C(=O)N(C)c3cccnc3)cn2)n1` [I-137], the pest or weed control at 500 ppm was not below 80%.
For the molecule `O=C(Nc1cccnc1)c1ccc(Cn2nc(C(F)(F)F)nc2C(F)(F)F)c(Cl)c1` [I-18], the pest or weed control at 500 ppm is not below 80%.
Still for that read-out and setting: with `CN(C(=O)c1ccc(N(C)C(=O)C(F)(F)Cl)cc1)c1cccnc1` [I-245] the figure was not below 80%; with `Cc1nc(Sc2ccc(C(=O)N(C)c3cccnc3)cn2)nc(C)c1C` [I-138], not below 80%; with `CN(C(=O)c1ccc(Oc2ccc(C(F)(F)F)cc2)nc1)c1cccnc1` [I-117], not below 80%.

The same experiment, now with this note: read-out: effect in % (aphids killed).
Regarding `CN(C(=O)c1ccc(N(C)C(=O)C(F)(F)C(F)(F)C(F)(F)F)cc1)c1cccnc1` [I-247], the pest or weed control at 500 ppm was not below 80%.
On the same count and under the same terms, the same measure for `O=C(Nc1cccnc1)c1ccc(C(F)(F)C(F)(F)C(F)(F)F)cc1` [I-29]: not below 80%.
